Target: human IDO1 protease (Homo sapiens (Human), UniProt P14902)
Assay: Inhibitory activity against human IDO1 protease (absorbance test method)
Assay type: biochemical
Settings: IDO1 (His-tag) enzyme, absorbance at 320 nm
Method: 1) Experimental Materials and Apparatus: • IDO1 (His-tag) enzyme (BPS Bioscience) • L-tryptophan (Sigma) • Methylene blue (Sigma) • Catalase originated from the liver of cattle (Sigma) • L-ascorbic acid (Sigma) • Glycerol (Sigma) • Potassium dihydrogen phosphate solution (Sigma) • Tween 20 (Sigma) • Automatic sampling platform Liquid handler (Bravo & Echo) • Microplate Reader SpectraMax M5e (Molecular Devices)
2) Test Method of Compounds: The Compounds are Determined by Absorbance Test Method:
The tested compounds and the reference compounds are dissolved in DMSO to prepare a high concentration of storage solution. The stock solution of reference compound was diluted with DMSO to prepare a 100× solution. In the first column of the working plate, 8 μL above tested compounds and 8 μL 100× reference compound were respectively added as the highest concentration, and then the highest concentrations were subjected to three times dilution to obtain 11 concentrations and prepare 100× solution. 0.5 μL solution was transferred from the above plate to the detection plate. […]. For HPE and ZPE control wells, 0.5 μL 100% DMSO was added.
25 μL 2×IDO1 (His-tag) enzyme solution (containing L-ascorbic acid, methylene blue, and catalase) was added to each well. 25 μL reaction solution without IDO1 (His-tag) enzyme was added into HPE control well. The test plate was centrifugated at 1000 rpm for 1 minute to mix well. Then, the test plate was incubated at room temperature for 30 minutes. 25 μL above 2× substrate (L-tryptophan) solution was added to each well. The test plate was centrifugated at 1000 rpm for 1 minute to mix well. The detection plate was placed on ELISA (SpectraMax M5e), the temperature was set at 25° C., and the absorbance (OD value) was measured at 320 nm every 10 minutes till 60 minutes.
Calculating the increase ratio of absorbance: the slope of the absorbance increase curve from 10 min to 60 min is derived from SpectralMax M5e. The inhibition coefficient of compound was calculated: the inhibition ratio of compound=(the absorbance increase ratio of ZPE control well−the absorbance increase ratio of compound well)/(the absorbance increase ratio of ZPE control well−the absorbance increase ratio of HPE control well)×100. Results was analyzed by Prism 5.0.

human IDO1 protease, sequence (P14902 whole entry): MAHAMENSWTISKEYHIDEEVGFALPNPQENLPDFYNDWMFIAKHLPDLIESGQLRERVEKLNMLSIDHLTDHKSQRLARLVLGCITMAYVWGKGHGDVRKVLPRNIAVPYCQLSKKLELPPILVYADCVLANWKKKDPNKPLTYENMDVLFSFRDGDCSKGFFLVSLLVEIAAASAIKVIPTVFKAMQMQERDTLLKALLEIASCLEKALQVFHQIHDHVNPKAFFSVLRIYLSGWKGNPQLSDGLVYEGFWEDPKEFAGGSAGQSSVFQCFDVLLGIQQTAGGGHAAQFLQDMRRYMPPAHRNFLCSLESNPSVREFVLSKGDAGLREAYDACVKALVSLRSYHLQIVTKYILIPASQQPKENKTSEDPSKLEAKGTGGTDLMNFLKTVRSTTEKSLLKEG

| Structure (SMILES) | IC50 |
| --- | --- |
| NS(=O)(=O)N1CCC(CCNc2nonc2/C(=N/O)Nc2ccc(F)c(Br)c2)CC1 [Compound 19, N-(3-bromo-4-fluorophenyl)-N′-hydroxyl-4-((2-(1-sulfamoylazacyclohexane-4-yl)ethyl)amino)-1,2,5-oxadiazole-3-formamidine] | 0.119 µM |
| NS(=O)(=O)N1CCC(CNc2nonc2/C(=N/O)Nc2ccc(F)c(Br)c2)C1 (centres unmarked) [Compound 7, N-(3-bromo-4-fluorophenyl)-N′-hydroxyl-4-(((1-sulfamoylpyrrolidin-3-yl)methyl)amino)-1,2,5-oxadiazole-3-formamidine] | 0.059 µM |
| CN(C)C(=O)C(=O)N1CC(CNc2nonc2C(=NO)Nc2ccc(F)c(Br)c2)C1 [Compound 89] | 0.183 µM |
| NS(=O)(=O)N1CCCC(CNc2nonc2/C(=N/O)Nc2ccc(F)c(Br)c2)C1 (centres unmarked) [Compound 10, N-(3-bromo-4-fluorophenyl)-N′-hydroxyl-4-(((1-sulfamoylpiperidin-3-yl)methyl)amino)-1,2,5-oxadiazole-3-formamidine] | 0.254 µM |
| CS(=O)(=O)N1CCC(CNc2nonc2/C(=N/O)Nc2ccc(F)c(Br)c2)C1 (centres unmarked) [Compound 20, N-(3-bromo-4-fluorophenyl)-N′-hydroxyl-4-(((1-methylsulfonylazacyclopentan-3-yl)methyl)amino)-1,2,5-oxadiazole-3-formamidine] | 0.079 µM |
| NS(=O)(=O)N1CC(O)(CNc2nonc2C(=NO)Nc2ccc(F)c(Br)c2)C1 [Compound 92] | 0.064 µM |
| NS(=O)(=O)N1CCC(CNc2nonc2/C(=N/O)Nc2ccc(F)c(Br)c2)CC1 [Compound 18, N-(3-bromo-4-fluorophenyl)-N′-hydroxyl-4-(((1-sulfamoylazacyclohexane-4-yl)methyl)amino)-1,2,5-oxadiazole-3-formamidine] | 0.114 µM |
| NS(=O)(=O)N1CCC1CNc1nonc1/C(=N/O)Nc1ccc(F)c(Br)c1 (centres unmarked) [Compound 12, N-(3-Bromo-4-fluorophenyl)-N′-hydroxyl-4-(((1-sulfamoylazetidine-2-yl)methyl)amino)-1,2,5-oxadiazole-3-formamidine] | 0.133 µM |
| NS(=O)(=O)N1CCC(COc2nonc2/C(=N/O)Nc2ccc(F)c(Br)c2)C1 (centres unmarked) [Compound 27, (Z)—N-(3-Bromo-4-fluorophenyl)-N′-hydroxyl-4-((1-sulfamoylpyrrolidin-3-yl)methoxyl)-1,2,5-oxadiazol-3-formamidine] | 0.628 µM |
| CN(C)S(=O)(=O)N1CC(CNc2nonc2C(=NO)Nc2ccc(F)c(Br)c2)C1 [Compound 81] | 0.142 µM |
| O/N=C(\Nc1ccc(F)c(Br)c1)c1nonc1NCC1CCNC1 (centres unmarked) [Compound 6, N-(3-Bromo-4-fluorophenyl)-N′-hydroxyl-4-((azacyclopentan-3-ylmethyl)amino)-1,2,5-oxadiazole-3-formamidine] | 0.088 µM |

More lines, in order of falling IC50, values ahead:

| IC50 | Structure (SMILES) |
| --- | --- |
| 0.43 µM | CC(C)(C)OC(=O)N1CC(CNc2nonc2/C(=N/O)Nc2ccc(F)c(Br)c2)C1 [Compound 3, t-Butyl 3-(((4-(N-(3-bromo-4-fluorophenyl)-N′-hydroxylformamidinyl)-1,2,5-oxadiazole-3-yl)amino)methyl)azetidin-1-formate] |
| 0.279 µM | NS(=O)(=O)N1CCCCC1CNc1nonc1/C(=N/O)Nc1ccc(F)c(Br)c1 (centres unmarked) [Compound 14, N-(3-bromo-4-fluorophenyl)-N′-hydroxyl-4-(((1-sulfamoylazacyclohexane-2-yl)methyl)amino)-1,2,5-oxadiazole-3-formamidine] |
| 0.276 µM | CC(C)(C)OC(=O)N1CCC(CNc2nonc2/C(=N/O)Nc2ccc(F)c(Br)c2)C1 (centres unmarked) [Compound 5] |
| 0.214 µM | NS(=O)(=O)N1CCCC1CNc1nonc1/C(=N/O)Nc1ccc(F)c(Br)c1 (centres unmarked) [Compound 13, N-(3-Bromo-4-fluorophenyl)-N′-hydroxyl-4-(((1-sulfamoylazacyclopentan-2-yl)methyl)amino)-1,2,5-oxadiazole-3-formamidine] |
| 0.206 µM | NS(=O)(=O)N1CCOC(CNc2nonc2/C(=N/O)Nc2ccc(F)c(Br)c2)C1 (centres unmarked) [Compound 11, N-(3-bromo-4-fluorophenyl)-N′-hydroxyl-4-(((4-sulfamoylmorpholin-2-yl)methyl)amino)-1,2,5-oxadiazole-3-formamidine] |
| 0.183 µM | CN(C)S(=O)(=O)N1CCC(CNc2nonc2/C(=N/O)Nc2ccc(F)c(Br)c2)C1 (centres unmarked) [Compound 23, (Z)—N-(3-bromo-4-fluorophenyl)-4-(((1-(N,N-methylsulfonyl)pyrrolidinyl-3-yl)methyl)amino)-N′-hydroxyl-1,2,5-oxadiazol-3-carboxyoximide] |
| 0.182 µM | O/N=C(\Nc1ccc(F)c(Br)c1)c1nonc1NCC1CNC1 [Compound 2, 4-((Azetidin-3-ylmethyl)amino)-N-(3-bromo-4-fluorophenyl)-N′-hydroxyl-1,2,5-oxadiazole-3-formamidine] |
| 0.167 µM | O=S(=O)(C1CC1)N1CC(CNc2nonc2/C(=N/O)Nc2ccc(F)c(Br)c2)C1 [Compound 86, (Z)—N-(3-Bromo-4-fluorophenyl)-4-(((1-(cyclopropylsulfonyl)azido-3-yl)methyl)amino)-N′-hydroxyl-1,2,5-oxadiazol-3-carboxyoximide] |
| 0.151 µM | NS(=O)(=O)N1CCCC1CCNc1nonc1/C(=N/O)Nc1ccc(F)c(Br)c1 (centres unmarked) [Compound 16, N-(3-bromo-4-fluorophenyl)-N′-hydroxyl-4-((2-(1-sulfamoylazacyclopentan-2-yl)ethyl)amino)-1,2,5-oxadiazole-3-formamidine] |
| 0.141 µM | O=S(=O)(C1CC1)N1CCC(CNc2nonc2/C(=N/O)Nc2ccc(F)c(Br)c2)C1 (centres unmarked) [Compound 21, N-(3-bromo-4-fluorophenyl)-N′-hydroxyl-4-(((1-cyclopropylsulfonylazacyclopentan-3-yl)methyl)amino)-1,2,5-oxadiazole-3-formamidine] |
| 0.115 µM | CS(=O)(=O)N1CC(CNc2nonc2C(=NO)Nc2ccc(F)c(Br)c2)C1 [Compound 85] |
| 0.101 µM | NS(=O)(=O)N1CCC(O)(CNc2nonc2C(=NO)Nc2ccc(F)c(Br)c2)C1 (centres unmarked) [Compound 151] |
